Experimental data: patent US20260174875A1 (Novo Nordisk A/S, priority 2023, published 2026)
Where two headings read alike, the source gives them in different places. Numbered stars: 1 amine (or outer) side, 2 acyl side, 3 side chain; on linkers, the order of the positions; unused ones are H or OH. Square brackets hold non-standard residues; d marks the D form. Side chains are listed from the residue outwards. * marks the point of attachment. C20 diacid = O=C(O)CCCCCCCCCCCCCCCCCCC(=O)*; C18 diacid = O=C(O)CCCCCCCCCCCCCCCCC(=O)*; γGlu = O=C(O)[C@H](CCC(=O)[*:2])N[*:1]; AEEA = NCCOCCOCC(=O)O; Aib = CC(C)(N)C(=O)O

Assays:
Assay type in all cases: cell-based
[1] = biological target: T1, human GLP-1 receptor (hGLP-1R) (Homo sapiens, UniProt P43220); experiment: GLP-1 receptor assay, method A (CRE-luciferase reporter, BHK cells)
T1 construct: expressed in transfected cells
Method: (§1) To assess how the activation of the receptors is potentially influenced by the presence of human serum albumin (HSA), the in vitro assays were performed in the absence of HSA and presence of 1% (w/v) HSA.
Cells at approximately 80-90% confluence were washed once in PBS (Gibco 14190-094) and loosened from the cell flasks with Versene (Gibco, 15040-033). […] Cells were aliquoted and stored at −180° C. until use.
(§2) The assay buffer consisted of DMEM without phenol red (Gibco, 11880-028) supplemented with 1× GlutaMAX (Gibco, 35050-038), 10 mM HEPES (Gibco, 15630-056), 1% (w/v) ovalbumin (Sigma, A5503) and 0.1% (v/v) Pluronic F-68 (Gibco, 24040-032) either with HSA or without HSA (Sigma, A9511).
Frozen stocks of hGLP-1R BHK CRE-Luc cells were thawed in a 37° C. water bath, washed once in PBS (Gibco 14190-094) and diluted to 1.5×10^6 (1.5E+6) cells/mL in assay buffer with or without 2% (w/v) HSA (Sigma, A9511). […] The assay plates were incubated for 3 hours at 37° C. in 5% CO2, left at room temperature for 5 minutes after which 100 μL steadylite Plus™ (PerkinElmer/Revvity, 6066759) was added to each well. Plates were sealed and incubated at room temperature with gentle shaking for 30 minutes while protected from light. Luminescence was detected on a luminescence plate reader e.g., a Synergy 2 (BioTek).

[2] = biological target: T2, human GIP receptor (hGIPR) (Homo sapiens, UniProt P48546); experiment: GIP receptor assay, method A (CRE-luciferase reporter, BHK cells)
T2 construct: expressed in transfected cells
T2 sequence (P48546 22-466): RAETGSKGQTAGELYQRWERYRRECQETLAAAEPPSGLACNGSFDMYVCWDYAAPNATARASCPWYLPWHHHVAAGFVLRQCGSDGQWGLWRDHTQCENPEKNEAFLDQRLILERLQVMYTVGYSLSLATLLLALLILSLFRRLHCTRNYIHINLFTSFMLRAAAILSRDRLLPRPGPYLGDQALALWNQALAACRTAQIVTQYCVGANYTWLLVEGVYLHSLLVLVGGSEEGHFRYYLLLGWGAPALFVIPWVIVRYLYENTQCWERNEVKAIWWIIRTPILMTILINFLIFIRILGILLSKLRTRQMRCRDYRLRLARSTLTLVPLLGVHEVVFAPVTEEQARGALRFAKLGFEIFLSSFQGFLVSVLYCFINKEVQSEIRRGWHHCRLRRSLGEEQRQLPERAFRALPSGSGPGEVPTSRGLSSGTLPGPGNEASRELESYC
Method: To assess how the activation of the receptors is potentially influenced by the presence of human serum albumin (HSA), the in vitro assays were performed in the absence of HSA and presence of 1% (w/v) HSA. Unless stated otherwise the reference to the “GIP receptor assay as described in Example 4” throughout the specification shall refer to the described herein assay procedure method A (hGIPR assay) in the absence of HSA.
Activation of the human GIP receptor leads to increased intra-cellular concentrations of cyclic AMP (cAMP) and the consequent transcription activation from promoters containing multiple copies of the cAMP response element (CRE). It is thus possible to measure GIP receptor activity using a CRE-luciferase reporter gene introduced into Baby Hamster Kidney (BHK) cells co-expressing the human GIP receptor.
Cells at about 80-90% confluency were washed once with PBS (Gibco 14190-094) and detached from the cell flasks with Versene (Gibco, 15040-066). After centrifugation, the cells were counted, resuspended and diluted to approximately 1.5-3.0×10^6 (1.5E+6 to 3.0E+6) cells/mL in Recovery Cell Culture Freezing Medium (Gibco, 12648-010) and stored at −180° C. in suitable aliquots until use.
as §2
On the day before the assay hGIPR BHK Cre-Luc cells were thawed and plated out in 96 well Culture Plates (PerkinElmer/Revvity, 6005680) at 5.0×10^3 (5.0E+3) cells/well in growth medium as described above. The plates were then incubated for 21-23 hours at 37° C. with 5% CO2. On the day of the assay GLP-1-/GIP-/amylin-receptor tri-agonists or reference compounds were diluted in assay buffer using a 7-point, 10-fold titration plus a blank (absence of compound). Each compound was diluted and tested in duplicates in each experiment. In the plates containing the cells the growth medium was removed, and cells were washed twice with 100 μL PBS (Gibco 14190-094). 50 μL of the test compound dilutions were added to the plates containing cells preceded by 50 μL assay buffer with or without 2% (w/v) HSA (Sigma, A9511). The cell plates were incubated for 3 hours in a 5% CO2 incubator at 37° C. The plates were then transferred to room temperature followed by addition of 100 μL steadylite Plus™ (PerkinElmer/Revvity, 6066759). The plates were sealed and shaken for 30 minutes at room temperature while protected from light. Finally, luminescence (as an indicator of receptor activation) was measured on a Mithras reader (Berthold Technologies, DE). The EC50-values [pM] were calculated by non-linear curve fitting applying a four-parameter logistic model (Hill slope=“shared value for all datasets”) using GraphPad Prism (GraphPad Software, Boston, MA, USA).

[3] = biological target: T3, human amylin receptor (hAMYR3) (Homo sapiens, UniProt O60896+P30988); experiment: Amylin receptor assay, method A (CRE-luciferase reporter, BHK cells)
T3 construct: host or cells: BHK cells (Hollex-1 line expressing hCTR(a) and CRE-Luc), further transfected with human RAMP3
Method: as §1
It is thus possible to measure hAMYR3 activity using a CRE-luciferase reporter gene introduced into Baby Hamster Kidney (BHK) cells co-expressing the hAMYR3.
The cell line was further transfected with human receptor modifying protein 3 (RAMP3) using standard methods.
After centrifugation, the cell pellet was resuspended and diluted to approximately 2.5-4.0×10^6 (2.5E+6 to 4.0E+6) cells/mL in Recovery™ Cell Culture Freezing Medium (Gibco, 12648-010). Cells were aliquoted and stored at −180° C. until use.
as §2, with “15630-056) and” for “15630-056),”, “either with or without” for “and”, “24040-032) and” for “24040-032)”, “with” for “with HSA”
The plate was incubated over night at 37° C. in 5% CO2. […] Luminescence was detected on a luminescence plate reader e.g., a Synergy 2 (BioTek).

[4] = hGLP-1R Potency, 1% HSA, EC50, method A, in the presence of 1% HSA
[5] = method A, absence of HSA, read-out: hGLP-1R Potency, no HSA, EC50
[6] = hGIPR Potency, 1% HSA, EC50, method A, in the presence of 1% HSA
[7] = method A, absence of HSA, read-out: hGIPR Potency, no HSA, EC50
[8] = hAMYR3 Potency, 1% HSA, EC50, method A, in the presence of 1% HSA
[9] = method A, absence of HSA, read-out: hAMYR3 Potency, no HSA, EC50

T3 sequence (P30988 25-474): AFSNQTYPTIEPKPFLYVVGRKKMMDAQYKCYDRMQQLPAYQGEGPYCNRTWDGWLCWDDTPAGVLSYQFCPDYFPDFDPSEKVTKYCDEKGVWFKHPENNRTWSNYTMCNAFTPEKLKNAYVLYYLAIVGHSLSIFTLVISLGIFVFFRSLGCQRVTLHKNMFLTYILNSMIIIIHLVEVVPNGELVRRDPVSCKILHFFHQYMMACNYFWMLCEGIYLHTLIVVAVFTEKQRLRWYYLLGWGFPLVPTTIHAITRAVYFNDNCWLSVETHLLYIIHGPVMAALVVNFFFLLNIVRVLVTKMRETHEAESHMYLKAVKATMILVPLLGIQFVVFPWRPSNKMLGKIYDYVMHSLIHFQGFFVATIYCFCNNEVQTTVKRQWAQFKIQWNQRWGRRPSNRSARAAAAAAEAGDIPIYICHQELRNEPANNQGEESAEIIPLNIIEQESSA
T3 sequence (O60896 24-148): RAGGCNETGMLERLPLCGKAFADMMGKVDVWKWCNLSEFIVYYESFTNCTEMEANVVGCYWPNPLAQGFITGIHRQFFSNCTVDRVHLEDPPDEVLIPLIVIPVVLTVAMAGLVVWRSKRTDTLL
T1 sequence (P43220 24-463): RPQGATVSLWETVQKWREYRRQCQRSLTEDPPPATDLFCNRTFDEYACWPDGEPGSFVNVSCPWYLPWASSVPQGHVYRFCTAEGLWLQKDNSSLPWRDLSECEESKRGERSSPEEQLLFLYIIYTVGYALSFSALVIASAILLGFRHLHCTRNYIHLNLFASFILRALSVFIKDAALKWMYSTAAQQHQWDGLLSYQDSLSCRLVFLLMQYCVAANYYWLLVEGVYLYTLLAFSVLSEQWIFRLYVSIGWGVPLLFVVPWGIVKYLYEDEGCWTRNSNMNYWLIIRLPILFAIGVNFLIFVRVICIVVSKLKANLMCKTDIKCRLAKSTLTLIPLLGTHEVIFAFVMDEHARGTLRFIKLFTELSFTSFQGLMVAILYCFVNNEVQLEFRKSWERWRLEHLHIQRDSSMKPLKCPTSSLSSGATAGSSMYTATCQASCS

“Y[Aib]EGTFTSDYSILLEEQAAREFIEWLLAGGPSRGEASHLSTAQTQRLSAELHK([AEEA-AEEA-γGlu-C20 diacid])LATLPRTETGSGSP-NH2 [Compound 94]” gave an EC50 [1, 4] of 0.13 nM, an EC50 [1, 5] of 0.0161 nM and an EC50 [2, 6] of 0.0295 nM. It also gave an EC50 [2, 7] of 0.0029 nM, an EC50 [3, 8] of 0.377 nM and an EC50 [3, 9] of 0.00391 nM.

“Y[Aib]EGTFTSDYSILLEEQAAREFIEWLLAGGPSSGAGQAPGQAPGASHLSTAALARLSAELHK([AEEA-AEEA-γGlu-C18 diacid])LATLPRTETGSGSP-NH2 [Compound 114]” was tested, and the EC50 [1, 4] was 0.126 nM, the EC50 [1, 5] was 0.0433 nM and the EC50 [2, 6] was 0.0172 nM. For the same substance, the EC50 [2, 7] was 0.00429 nM, the EC50 [3, 8] was 0.0452 nM and the EC50 [3, 9] was 0.00227 nM.

Substance “H[Aib]HGTFTSDYSILLEEQAAREFIEWLLAGGPSSGALQAPGQAPLASHLSTAQTARLSAELHK([AEEA-AEEA-γGlu-C18 diacid])LATLPRTETGSGSP-NH2 [Compound 108]” has an EC50 [1, 4] of 0.015 nM, an EC50 [1, 5] of 0.00457 nM and an EC50 [2, 6] of 0.0115 nM. It also gave an EC50 [2, 7] of 0.00401 nM, an EC50 [3, 8] of 0.0599 nM and an EC50 [3, 9] of 0.00248 nM.

“Y[Aib]EGTFTSDYSILLEEQAAREFIEWLLAGGPSSGAGQAPGQAPGASK([AEEA-AEEA-γGlu-C18 diacid])LSTAQTQRLSAELHRLATLPRTETGSGSP-NH2 [Compound 54]” gave an EC50 ([1]; hGLP-1R Potency, no HSA, EC50, method A, absence of HSA) of 0.0288 nM, an EC50 ([2]; hGIPR Potency, no HSA, EC50, method A, absence of HSA) of 0.00556 nM and an EC50 ([3]; hAMYR3 Potency, no HSA, EC50, method A, absence of HSA) of 0.00302 nM.

“Y[Aib]EGTFTSDYSILLEEQAAREFIEWLLAGGPSSGAGQAPGQAPGASHLSTAQTQRLSAELHRLK([AEEA-AEEA-AEEA-γGlu-C18 diacid])TLPRTETGSGSP-NH2 [Compound 111]” was tested, and the EC50 [1, 4] was 0.0348 nM, the EC50 [1, 5] was 0.0159 nM and the EC50 [2, 6] was 0.0122 nM. The EC50 [2, 7] was 0.00366 nM, the EC50 [3, 8] was 0.0664 nM and the EC50 [3, 9] was 0.00333 nM.

“Y[Aib]EGTFTSDYSILLEEQAAREFIEWLLAGGPSSK([γGlu-C20 diacid])APPPSGGGEASELSTAALGRLSAELHRLATLPRTETGSGSP-NH2 [Compound 42]” gave an EC50 [1, 5] of 0.0613 nM, an EC50 [2, 7] of 0.00801 nM and an EC50 [3, 9] of 0.00342 nM.

In the case of “Y[Aib]EGTFTSDYSILLEEQAAREFIEWLLAGGPSSGAGQAPGQAPGASHLSTAQTQRLSAELHRLATLPK([AEEA-AEEA-γGlu-C20 diacid])TETGSGSP-NH2 [Compound 76]”, the EC50 [1, 4] is reported as 0.0636 nM, the EC50 [1, 5] is reported as 0.0199 nM and the EC50 [2, 6] is reported as 0.0111 nM. For the same substance, the EC50 [2, 7] was 0.00282 nM, the EC50 [3, 8] was 0.43 nM and the EC50 [3, 9] was 0.00311 nM.

For “H[Aib]HGTFTSDYSILLEEQAAREFIEWLLAGGPSK([AEEA-AEEA-γGlu-C18 diacid])GAPPPSGGGASELSTAALGRLSAELHRLATLPRTETGSGSP-NH2 [Compound 86]”, the EC50 [1, 4] was 0.13 nM, the EC50 [1, 5] was 0.00669 nM and the EC50 [2, 6] was 0.122 nM. It also gave an EC50 [2, 7] of 0.00511 nM, an EC50 [3, 8] of 0.0584 nM and an EC50 [3, 9] of 0.00331 nM.
